Read-outs that look alike come from different tables or passages of the source.
Experiments:
heparinase II [1] = target: T1, heparinase II (Pedobacter heparinus, UniProt C6XZB6); test: DEPC inactivation of heparinase II and reactivation with hydroxylamine; format: biochemical, Flavobacterium heparinum; conditions: for kinact/KI: read-out: second-order rate constant of inactivation (converted); for initial activity recovered by DEPC-modified enzyme: 500 mM hydroxylamine
T1 sequence (C6XZB6 26-772): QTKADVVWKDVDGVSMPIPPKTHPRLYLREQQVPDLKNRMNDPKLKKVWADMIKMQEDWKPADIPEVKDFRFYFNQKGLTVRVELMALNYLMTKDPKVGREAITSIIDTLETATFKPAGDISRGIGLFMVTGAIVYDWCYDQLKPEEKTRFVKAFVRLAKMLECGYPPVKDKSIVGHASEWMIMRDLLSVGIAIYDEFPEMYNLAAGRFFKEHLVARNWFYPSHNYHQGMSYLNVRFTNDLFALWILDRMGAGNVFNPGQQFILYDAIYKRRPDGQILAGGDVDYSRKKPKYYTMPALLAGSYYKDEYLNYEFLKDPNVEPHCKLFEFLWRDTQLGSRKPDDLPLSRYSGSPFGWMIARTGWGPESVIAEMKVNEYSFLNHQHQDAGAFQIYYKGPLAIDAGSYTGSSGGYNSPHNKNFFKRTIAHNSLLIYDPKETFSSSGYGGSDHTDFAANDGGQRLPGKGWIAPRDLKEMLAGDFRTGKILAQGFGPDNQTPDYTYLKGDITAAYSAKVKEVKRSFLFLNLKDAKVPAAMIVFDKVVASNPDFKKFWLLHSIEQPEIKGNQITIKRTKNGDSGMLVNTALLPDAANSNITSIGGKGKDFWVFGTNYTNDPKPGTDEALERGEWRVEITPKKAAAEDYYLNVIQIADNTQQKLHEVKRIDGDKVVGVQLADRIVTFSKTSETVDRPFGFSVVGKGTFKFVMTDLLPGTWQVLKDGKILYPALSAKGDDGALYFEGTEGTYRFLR

heparinase II [2] = target: T1, heparinase II; test: pCMB modification and inactivation of heparinase II; format: biochemical, Flavobacterium heparinum
Text: (§1) Heparinase II Activity Assay. Native heparinase II from Flavobacterium heparinum, was purified as described previously (Godavarti, R., and Sasisekharan, R (1996c) Biochem. Biophys. Res. Comm. 229, 770-777). The UV 232 nm assay to quantify native heparinase II enzymatic activity was similar to that reported for heparinase I (Bernstein, H., Yang, V. C., Cooney, C. L., Langer, R. (1988) Meth. Enzym. 137, 515-29). Briefly, the course of the reaction is monitored by measuring the increase in absorbance at 232 nm as a function of time under saturating substrate concentrations. With heparin as the substrate, the reaction was carried out at a concentration of 4 mg/ml in 50 mM sodium phosphate buffer, pH 7.3. With 2 mg/ml heparan sulfate, the reaction was measured in 50 mM sodium phosphate buffer, pH 6.9 (Sasisekharan, R., Moses, M. A., Nugent, M. A., Cooney, C. L., Langer, R. (1994) Proc. Natl. Acad. Sci., USA 91, 1524-1528). The temperature for all enzymatic activity measurements was kept constant at 35° C.
pCMB Modification Studies. […]. A control reaction mixture containing vehicle alone was run in tandem. At fixed time intervals, aliquots were withdrawn for the UV 232 nm enzyme activity assay.
(B) Reactivation of pCMB—modified heparinase II with DTT. Heparinase II (50 μg/ml) was incubated with 5 μM pCMB for 4 minutes and an aliquot was withdrawn to determine the fractional activity retained. DTT (10 mM) was then immediately added to the reaction mixture and to the control, which contained no pCMB. The mixtures were incubated at 4° C. Heparinase II activity was measured every half hour.
(C) Effect of salt on the inactivation of heparinase II by pCMB. Heparinase II was incubated with 5 μM pCMB in 50 mM sodium phosphate buffer, pH 7.0, with different salt concentrations (30, 60, 110, 180, 300, and 500 mM NaCl). A control mixture, which contained no additional salt, was also incubated with pCMB.
(D) Substrate protection of heparinase II against pCMB modification. Heparinase II (50 μg/ml) was preincubated with either 4 mg/ml heparin or 2 mg/ml heparan sulfate for 30 minutes prior to the addition of 5 μM pCMB and then the time course of inactivation was determined with the heparinase II activity assay.
(E) Quantification of pCMB—modified residues of heparinase II. Quantification of pCMB-modified residues of heparinase II was determined by difference spectra. […] The change in absorbance at 250 nm was monitored every 30 seconds for 10 minutes. The number of modified residues was determined using ∈=7,600 M^−1 cm^−1 (Boyer, P. D. (1952) J. Am. Chem. Soc. 76, 4331-4337). Heparinase II activity assays were completed under identical conditions with heparin as the substrate.
[…]. Less than 2% of total heparinase II enzymatic activity remained after this time interval. […]. Modified heparinase II was separated and concentrated. pCMB was removed via addition of DTT. [^3H]NEM was added to the reaction mixture; unreacted tritium was separated by RPHPLC and heparinase II was digested with Lys-C.

[3] = Heparinase I UV 232 nm activity assay as a function of heparin concentration (Kcat, Km); format: biochemical, porcine; conditions: heparin 0 to 4 mg/ml, 5 mM calcium acetate, pH 7.0; for Kcat: 100 mM MOPS
Text: as §1
Heparinase I Activity Assay. The UV 232 nm assay to quantify heparinase I enzymatic activity was similar to that described in Example 1. With heparin as the substrate, the reaction was carried out at a concentration of 4 mg/ml in 100 mM MOPS, 5 mM calcium acetate, pH 7.0. The temperature for all enzymatic activity measurements was kept constant at 30° C. For the inactivation kinetic profiles, activity was measured as outlined above at precise time points.
(§2) Heparinase I Activity Assays: The UV 232 nm assay was used as described in Example 1. When measuring the enzyme activity as a function of heparin concentration, heparin concentrations varied from 0 to 4 mg/ml at a fixed calcium concentration of 5 mM (100 mM MOPS buffer/5 mM calcium acetate, pH 7.0). The data was then fit to an non-linear equation to determine Kcat and Km of heparinases I. Heparinase mutant activity was also investigated as a function of calcium concentration ranging from 0 to 10 mM. […] Activity is expressed as IU-μmol product formed/min using ∈=−3800-M^−1CM^−1.

[4] = Heparinase I activity as a function of calcium concentration (K0.5, calcium dependence); format: biochemical
Protocol: as §2

[5] = Heparin-POROS affinity chromatography; format: binding; conditions: salt concentration at which enzyme elutes from heparin-POROS column; 10 mM Tris, 1 mM EDTA pH 7.0
Protocol: Heparin-POROS chromatography: About 30-40 μg of -L r-heparinase I and the various mutant enzymes were injected into a heparin POROS (4.6 mm×100) column (PerSeptive BioSystems, Framingham, Mass.) connected to BioCAD system (PerSeptive BioSystems). Proteins were eluted using a linear gradient of […] NaCl in 10 min (10 mM Tris, 1 mM EDTA pH 7.0) and monitored at 210 nm. EDTA was added to chelate any calcium ions that may be present in the buffers.

[6] = calcium concentration at which half of the maximum enzyme activity was observed, calcium 0 to 10 mM, Table 4 first K0.5 column

Molecule: CCOC(=O)OC(=O)OCC [DEPC, diethylpyrocarbonate]
- loss of heparinase II enzymatic activity (heparinase II [1]; 2 mM DEPC, 10 minutes, towards heparin and heparan sulfate): 90%
- number of histidines modified (heparinase II [1]; 2 mM DEPC, ten minutes, pH 7.0): roughly three
- kinact/KI (heparinase II [1]; heparan sulfate as the substrate): 4 M⁻¹ s⁻¹
- kinact/KI (heparinase II [1]; heparin as the substrate): 2.67 M⁻¹ s⁻¹

Molecule: NO [Hydroxylamine]
- initial activity recovered by DEPC-modified enzyme (heparinase II [1]; 8 hours, pH 7.0): about 90%
- initial activity recovered by DEPC-modified enzyme (heparinase II [1]; approximately 1.5 hours, pH 7.0, after inactivation to 50%): about 80%
- activity restored after DEPC modification (heparinase II [1]; pH 8): over 70%

Molecule: O=C(O)c1cc[c]([Hg][Cl])cc1 [pCMB, p(chloromercuri)benzoate]
- time to complete inactivation of heparinase II (heparinase II [2]; 10 μM): ≤ 15 min
- loss of activity (heparinase II [2]; 20 μM pCMB): 98%
- number of cysteines modified (heparinase II [2]; 20 μM pCMB): 1.06 cysteines
- first-order rate constant of inactivation (heparinase II [2]; 500 mM salt): 0.06 min⁻¹
- drop of first order rate constant of inactivation (heparinase II [2]; between 0 and 100 mM NaCl, 5 μM pCMB): 2 fold
- decrease of first order rate constant of inactivation (heparinase II [2]; between 0 and 300 mM NaCl, 5 μM pCMB): more than 4 fold
- k, first-order rate constant of inactivation (heparinase II [2]; pH 5.0): 0.16 min⁻¹
- k, first-order rate constant of inactivation (heparinase II [2]; pH 6.0): 0.14 min⁻¹
- k, first-order rate constant of inactivation (heparinase II [2]; pH 7.0): 0.21 min⁻¹
- second-order rate constant for the inactivation (heparinase II [2]; pH 7.0, 4° C.): 667 M⁻¹ s⁻¹
- k, first-order rate constant of inactivation (heparinase II [2]; pH 8.0): 0.24 min⁻¹
- total heparinase II enzymatic activity remaining (heparinase II [2]; stoichiometric amount of pCMB, 15 minutes): Less than 2%
- pCMB inactivation (Table 1 value) (heparinase II [2]; substrate heparan sulfate, protection reagent heparan sulfate): 0.09
- pCMB inactivation (Table 1 value) (heparinase II [2]; substrate heparan sulfate, protection reagent heparin): 0.16
- pCMB inactivation (Table 1 value) (heparinase II [2]; substrate heparan sulfate, protection reagent none): 0.21
- pCMB inactivation (Table 1 value) (heparinase II [2]; substrate heparin, protection reagent heparan sulfate): 0.10
- pCMB inactivation (Table 1 value) (heparinase II [2]; substrate heparin, protection reagent heparin): 0.16
- pCMB inactivation (Table 1 value) (heparinase II [2]; substrate heparin, protection reagent none, 5 μM pCMB): 0.22

B1: E207A/D210A: heparinase I CB-1 double mutant (protein, UniProt Q05819 22-384, looked up, variant E207A D210A)
Heparin lyase I: QQKKSGNIPYRVNVQADSAKQKAIIDNKWVAVGINKPYALQYDDKLRFNGKPSYRFELKAEDNSLEGYAAGETKGRTELSYSYATTNDFKKFPPSVYQNAQKLKTVYHYGKGICEQGSSRSYTFSVYIPSSFPDNATTIFAQWHGAPSRTLVATPEGEIKTLSIEEFLALYDRMIFKKNIAHDKVAKKAKDGKITYVAGKPNGWKVEQGGYPTLAFGFSKGYFYIKANSDRQWLTDKADRNNANPENSEVMKPYSSEYKTSTIAYKMPFAQFPKDCWITFDVAIDWTKYGKEANTILKPGKLDVMMTYTKNKKPQKAHIVNQQEILIGRNDDDGYYFKFGIYRVGNSTVPVTYNLSGYSETAR
- Kcat [3]: 65 s⁻¹
- Km [3]: 2.77 µM
- K0.5 ([4]; Table 4 second K0.5 column): 470 µM
- K0.5 [4, 6]: 470 µM
- NaCl [5]: 513 mM

B2: E207A/D212A: heparinase I CB-1 double mutant (protein, UniProt Q05819 22-384, looked up, variant E207A D212A)
Heparin lyase I: QQKKSGNIPYRVNVQADSAKQKAIIDNKWVAVGINKPYALQYDDKLRFNGKPSYRFELKAEDNSLEGYAAGETKGRTELSYSYATTNDFKKFPPSVYQNAQKLKTVYHYGKGICEQGSSRSYTFSVYIPSSFPDNATTIFAQWHGAPSRTLVATPEGEIKTLSIEEFLALYDRMIFKKNIAHDKVAKKDKAGKITYVAGKPNGWKVEQGGYPTLAFGFSKGYFYIKANSDRQWLTDKADRNNANPENSEVMKPYSSEYKTSTIAYKMPFAQFPKDCWITFDVAIDWTKYGKEANTILKPGKLDVMMTYTKNKKPQKAHIVNQQEILIGRNDDDGYYFKFGIYRVGNSTVPVTYNLSGYSETAR
- Kcat [3]: 58 s⁻¹
- Km [3]: 0.93 µM
- K0.5 ([4]; Table 4 second K0.5 column): 710 µM
- K0.5 [4, 6]: 710 µM
- NaCl [5]: 513 mM

B3: D212A/T216A: heparinase I CB-1 double mutant (protein, UniProt Q05819 22-384, looked up, variant D212A T216A)
Heparin lyase I: QQKKSGNIPYRVNVQADSAKQKAIIDNKWVAVGINKPYALQYDDKLRFNGKPSYRFELKAEDNSLEGYAAGETKGRTELSYSYATTNDFKKFPPSVYQNAQKLKTVYHYGKGICEQGSSRSYTFSVYIPSSFPDNATTIFAQWHGAPSRTLVATPEGEIKTLSIEEFLALYDRMIFKKNIAHDKVEKKDKAGKIAYVAGKPNGWKVEQGGYPTLAFGFSKGYFYIKANSDRQWLTDKADRNNANPENSEVMKPYSSEYKTSTIAYKMPFAQFPKDCWITFDVAIDWTKYGKEANTILKPGKLDVMMTYTKNKKPQKAHIVNQQEILIGRNDDDGYYFKFGIYRVGNSTVPVTYNLSGYSETAR
- Kcat [3]: 52 s⁻¹
- Km [3]: 1.52 µM
- K0.5 ([4]; Table 4 second K0.5 column): 320 µM
- K0.5 [4, 6]: 320 µM
- NaCl [5]: 497 mM

B4: E381A/T382A: heparinase I CB-2 double mutant (protein, UniProt Q05819 22-384, looked up, variant E381A T382A)
Heparin lyase I: QQKKSGNIPYRVNVQADSAKQKAIIDNKWVAVGINKPYALQYDDKLRFNGKPSYRFELKAEDNSLEGYAAGETKGRTELSYSYATTNDFKKFPPSVYQNAQKLKTVYHYGKGICEQGSSRSYTFSVYIPSSFPDNATTIFAQWHGAPSRTLVATPEGEIKTLSIEEFLALYDRMIFKKNIAHDKVEKKDKDGKITYVAGKPNGWKVEQGGYPTLAFGFSKGYFYIKANSDRQWLTDKADRNNANPENSEVMKPYSSEYKTSTIAYKMPFAQFPKDCWITFDVAIDWTKYGKEANTILKPGKLDVMMTYTKNKKPQKAHIVNQQEILIGRNDDDGYYFKFGIYRVGNSTVPVTYNLSGYSAAAR
- Kcat [3]: 10 s⁻¹
- Km [3]: 1.75 µM
- K0.5 ([4]; Table 4 second K0.5 column): 180 µM
- K0.5 [4, 6]: 180 µM
- NaCl [5]: 505 mM

— US7560106B2, “Rationally designed heparinases derived from heparinase I and II and methods of sequencing therewith” (Massachusetts Institute of Technology, priority 1998, dated 2009)
